Patent US8889638B2, “Stimulus-triggered prodrugs” (The Regents of the University of California, priority 2010, dated 2014)

Experiments:
[1] = Cleavage of boronic ester/acid protected compounds by H2O2 (UV-Vis, rate constant, HPLC); assay type: physicochemical; details: for k, pseudo first-order rate constants calculated with an excess of H2O2: 50 μM in HEPES buffer pH 7.5, room temperature
Description: (§1) Absorption spectra of compounds B1-B16 were taken on a Perkin-Elmer Lambda 25 UV-visible spectrophotometer. To a 1.0 mL solution at 0.05 mM concentration in HEPES buffer (50 mM, pH 7.5) was added H2O2 (10 uL (0.09 M) in HEPES for compounds B1-B12 and B14-B16, 10 uL (0.9 M) in HEPES for compound B3, and 2.8 uL (0.09 M) in HEPES for compound B13). Spectra were monitored over time at room temperature. Absorption spectra of compounds B17-B21 were taken on a Perkin-Elmer Lambda 25 UV-visible spectrophotometer. To a 1.0 mL solution at 0.05 mM concentration of compounds 1-7 in HEPES buffer (50 mM, pH=7.5) was added H2O2 (10 uL, 0.09 M in HEPES) or KO2 (0.10 mM) with catalase (5 U). Hydrolytic stability was measured by monitoring samples of B19-B21 in HEPES buffer for a 24 h time period. Spectra were monitored over time at room temperature.
The pseudo-first order rate constant was calculated by monitoring the absorption spectra over time in the presence of excess hydrogen peroxide. To a 1.0 mL solution of compounds B1-B3 and B10-B14 in HEPES buffer (50 mM, pH 7.5) at 50 μM was added H2O2 to final concentrations of 150 μM, 250 μM, 500 μM, 750 μM, and 900 μM. Spectra were monitored over 15-30 min at room temperature with at least 50 spectra recorded. The change in absorption at 302 nm for B1-B3, 272 nm for B10, 312 nm for B11, 268 for B12, 306 nm for B13, and 303 nm for B14 were monitored. For compounds B1-B3 and B10-B11, the rate constant (kobs) was found from monitoring the appearance of the monitored absorption peak by plotting the linear slope of ln [(A∞−At)/(A∞)] vs. time (where A∞ is the absorbance of a 50 μM sample of the methyl salicylate for B1-B3, maltol for B10, and 1,2-HOPO for B11). For compounds B12-B14 the rate constant (kobs) was found from monitoring the disappearance of the monitored absorption peak by plotting the linear slope of ln [(A−AZBG)/(A0−AZBG)] vs. time (where AZBG is the absorbance of a 50 μM sample of the ZBG and A0 is the initial absorbance of […]).^3 The rate of conversion was determined from the slope of the line of kobs vs. [H2O2]. The pseudo-first order rate constant was calculated following literature procedure.^[15] To a 1.0 mL solution of compounds B19-B21 in HEPES buffer at 50 μM was added H2O2 to final concentrations of 150 μM, 250 μM, 500 μM, 750 μM, and 900 μM. Spectra were monitored over 15-30 min at room temperature with at least 50 spectra recorded. The change in absorption at 292 nm for B19 and 252 nm for B20 and B21 were monitored. The rate constant (kobs) was found from the linear slope of ln [(A−AZBG)/(A0−AZBG)] vs. time (where AZBG is the absorbance of a 50 μM sample of the ZBG and A0 is the initial absorbance of B19-B21). The rate of conversion was determined from the slope of the line of kobs vs. [H2O2].
Analytical HPLC was performed on a HP Series 1050 system equipped with a Vydac® C18 reverse phase column (218 TP, 250×4.6 mm, 5 μm). […] Starting with 95% A and 5% B, an […] gradient was run for 15 min to a final solvent mixture of 5% A and 95% B, which was held for 5 min before ramping back down to 95% A and 5% B in 2 min and holding for an additional 4 min. Compounds were prepared in HEPES buffer (50 mM, pH 7.5) at a concentration of 1 mM. Retention times of compounds were determined under identical HPLC conditions prior to and after reaction with H2O2. LC-MS(+) was performed on compounds B6, B15 and B16 to confirm cleavage of the boronic ester to the phenolic moiety.

[2] = Hydrolytic stability of boronic ester compounds in HEPES buffer; assay type: physicochemical; details: for hydrolytic stability in buffer: 4 h period
Description: as §1

[3] = target: T1, MMP-9 (catalytic domain, human, recombinant) (Homo sapiens, UniProt P14780); assay: MMP-9 fluorescence-based inhibition assay with and without β-glucosidase; assay type: biochemical; details: for inhibition of MMP-9 when exposed to β-glucosidase: 1 mM for 2, 4 mM for 4, 125 μM for 6; for inhibition of MMP-9 in the absence of β-glucosidase: 1 mM for 2, 4 mM for 4, 125 μM for 6, 16 μM for 8
T1 construct: MMP-9 (catalytic domain, human, recombinant); purchased BIOMOL International
Description: MMP-9 (catalytic domain, human, recombinant), MMP-8 (catalytic domain, human, recombinant), and the assay kit were purchased from BIOMOL International. The assays were carried out according to the procedure provided with the kit. MMP activity was measured in 96-well plates using a Bio-Tek Flx 800 fluorescent plate reader. The ZBGs and their protected analogs were dissolved in DMSO and diluted in HEPES buffer (50 mM, pH 7.5) to a concentration of 10 mM for 1-2, 40 mM for 3-4, and 1.25 mM for 5-6. Each well contained 20 μL, of MMP-9 (0.45 U/mL), inhibitor (10 μL, of 1-6), 5 μL, of β-glucosidase (1 U/μL) when used, and buffer for a total volume of 99 μL. These were incubated for 1 h at 37° C. […] The reaction was initiated by the addition of 1 μL (400 μM) of the fluorescent substrate (Mca-Pro-Leu-Gly-Leu-Dpa-Ala-Arg-NH2 where Mca=(7-methoxycoumarin-4-yl)-acetyl and Dpa=N-3-(2,4-dinitrophenyl)-L-α-β-diaminopropionyl)) and kinetic activity was measured every minute for 30 min with excitation and emission wavelengths at 335 nm and 405 nm, respectively. Enzyme activity with inhibitor was calculated with respect to the control experiment (no inhibitor present). Measurements were performed in duplicate in two independent experiments.
For Cmpds 7 and 8, 1 mL sample in HEPES buffer at a concentration of 1 mM was incubated at 37° C. with 250 U of β-glucosidase (1 U/μL) for 4 h giving a final concentration of 0.8 mM of the inhibitor. After 4 h, a 200 μL aliquot was collected and filtered through a microcentrifuge filter. UV-Vis absorption spectroscopy was to verify that the concentration of 1,2-HOPO-2 was 0.71±0.2 mM in each of the samples using the extinction coefficient for 1,2-HOPO-2 (7) calculated at 346 nm (4,279.3±372 M-1 cm-1). Each well was made up with 20 μL of MMP-9 (0.45 U/mL), inhibitor (2 μL, for 7 and 8), and buffer for a total volume of 99 μL. These were incubated for 30 min at 37° C. For MMP-8 inhibition assays, each of the samples was diluted to 1 μM in HEPES buffer and 15 μL of each were added to 20 μL of MMP-8 (0.092 U/mL) and buffer for a total of 99 μL. The reaction was initiated by the addition of 1 μL (400 μM) of the fluorescent substrate and kinetic activity was measured every minute for 30 min with excitation and emission wavelengths at 335 nm and 405 nm, respectively. Enzyme activity with inhibitor was calculated with respect to the control experiment (no inhibitor present). A control sample was also performed, in which an aliquot of 250 U of β-glucosidase (1 U/μL) with 1 mL of HEPES buffer was incubated for 4 h at 37° C., filtered through a microcentrifuge filter, and evaluated in the MMP assay to confirm that no inhibition is observed with β-glucosidase. Measurements were performed in duplicate in two independent experiments. […]

[4] = Hydrolytic stability of sulfonate esters in HEPES buffer; assay type: physicochemical
Description: Absorption spectra of compounds were taken on a Perkin-Elmer Lambda 25 UV-Visible Spectrophotometer. To a 1.0 mL solution at 0.05 mM concentration of each compound in HEPES buffer (50 mM, pH 7.5) was added H2O2 (10 μL, 0.09M in HEPES) and absorption spectra were monitored over time at room temperature. Hydrolytic stability was measured by monitoring each sample in HEPES buffer over a 24 hour time period.

T1 sequence (P14780 107-444 limits assumed): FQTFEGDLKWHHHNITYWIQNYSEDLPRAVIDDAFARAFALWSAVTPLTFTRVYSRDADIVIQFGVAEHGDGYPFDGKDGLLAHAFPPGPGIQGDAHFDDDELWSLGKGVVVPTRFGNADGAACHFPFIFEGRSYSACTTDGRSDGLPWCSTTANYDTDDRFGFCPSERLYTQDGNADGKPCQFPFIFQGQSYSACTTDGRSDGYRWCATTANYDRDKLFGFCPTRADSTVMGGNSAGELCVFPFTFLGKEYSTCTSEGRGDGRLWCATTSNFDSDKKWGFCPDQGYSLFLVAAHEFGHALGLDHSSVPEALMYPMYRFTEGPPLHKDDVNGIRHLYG

Question: Which “k, pseudo first-order rate constants calculated with an excess of H2O2” value [1] does the source give for `COC(=O)c1ccccc1OC(=O)OCc1ccc(B2OC(C)(C)C(C)(C)O2)cc1` [Compound B2, Methyl 2-((((4-(4,4,5,5-tetramethyl-1,3,2-dioxaborolan-2-yl)benzyl)oxy)carbonyl)oxy)benzoate] here?
Answer: The value was 2.7 ± 0.1 M⁻¹ s⁻¹.

Question: And the “hydrolytic stability in buffer” value [2]?
Answer: The value was “spontaneous hydrolytic cleavage”.

Question: Which results are given for `Cc1occc(=O)c1OC1OC(CO)C(O)C(O)C1O` [Compound 4, 2-Methyl-4H-pyran-4-one-3-β-D-glucopyranoside]?
Answer: inhibition of MMP-9 when exposed to β-glucosidase [3]: complete restoration of inhibition; inhibition of MMP-9 in the absence of β-glucosidase [3]: attenuated inhibition

Question: For `O=c1ccccn1OS(=O)(=O)c1ccc([N+](=O)[O-])cc1[N+](=O)[O-]` [PZBG-1d, 2-Oxopyridin-1(2H)-yl 2,4-dinitrobenzenesulfonate], which “stability in aqueous buffer in the absence of H2O2” value [4] is on record?
Answer: The value was “rapid hydrolytic cleavage”.

Question: For `Cc1c(OCc2ccc(B3OC(C)(C)C(C)(C)O3)cc2)c(=O)ccn1C` [Compound B12, 1,2-Dimethyl-3-((4-(4,4,5,5-tetramethyl-1,3,2-dioxaborolan-2-yl)benzyl)oxy)pyridin-4(1H)-one], which “k, pseudo first-order rate constants calculated with an excess of H2O2” value [1] is on record?
Answer: The value was 3.5 ± 0.3 M⁻¹ s⁻¹.

Question: Which “k, pseudo first-order rate constants calculated with an excess of H2O2” value [1] does the source give for `COC(=O)c1ccccc1OCc1ccc(B2OC(C)(C)C(C)(C)O2)cc1` [Compound B1, Methyl 2-((4-(4,4,5,5-tetramethyl-1,3,2-dioxaborolan-2-yl)benzyl)oxy)benzoate] here?
Answer: The value was 1.12 ± 0.04 M⁻¹ s⁻¹.

Question: And the “hydrolytic stability in buffer” value [2]?
Answer: Its value is “stable”.

Question: For `O=c1ccccn1OC1OC(CO)C(O)C(O)C1O` [Compound 2, 1-Hydroxypyridin-2(1H)-one-β-D-glucopyranoside], which “inhibition of MMP-9 when exposed to β-glucosidase” value [3] is on record?
Answer: The value was “complete restoration of inhibition”.

Question: And the “inhibition of MMP-9 in the absence of β-glucosidase” value [3]?
Answer: Its value is “attenuated inhibition”.

Question: With `CC1(C)OB(c2ccc(COc3cccc4cccnc34)cc2)OC1(C)C` [Compound B14, 8-((4-(4,4,5,5-Tetramethyl-1,3,2-dioxaborolan-2-yl)benzyl)oxy)quinoline] as the molecule, how does the “k, pseudo first-order rate constants calculated with an excess of H2O2” value [1] read?
Answer: The value was 4.1 ± 0.2 M⁻¹ s⁻¹.

Question: Which “k, pseudo first-order rate constants calculated with an excess of H2O2” value [1] does the source give for `CC1(C)OB(c2ccc(COc3cccccc3=O)cc2)OC1(C)C` [Compound B13, 2-((4-(4,4,5,5-Tetramethyl-1,3,2-dioxaborolan-2-yl)benzyl)oxy)cyclohepta-2,4,6-trienone] here?
Answer: The value was 2.9 ± 0.1 M⁻¹ s⁻¹.

Question: For `Cc1occc(=O)c1OC(=O)OCc1ccc(B2OC(C)C(C)(C)O2)cc1` (stereo not drawn) [Compound B21, 2-methyl-4-oxo-4H-pyran-3-yl 4-(4,4,5-trimethyl-1,3,2-dioxaborolan-2-yl)benzyl carbonate], which “rate constant of conversion with an excess of H2O2” value ([1]; pseudo-first order conditions, HEPES buffer) is on record?
Answer: Its value is 6.7 M⁻¹ s⁻¹.

Question: And the hydrolysis in buffer ([2]; 24 h time period)?
Answer: The hydrolysis in buffer was greater than 50%.

Question: For `COC(=O)c1ccccc1B1OC(C)(C)C(C)(C)O1` [Compound B3, Methyl 2-(4,4,5,5-tetramethyl-1,3,2-dioxaborolan-2-yl)benzoate], which “k, pseudo first-order rate constants calculated with an excess of H2O2” value [1] is on record?
Answer: The value was 0.031 ± 0.002 M⁻¹ s⁻¹.

Question: What about the “hydrolytic stability in buffer” value [2] of the same molecule?
Answer: Its value is “comparable to the ether linkage used in B1”.

Question: For `Cc1occc(=S)c1OC1OC(CO)C(O)C(O)C1O` [Compound 6, 2-Methyl-4H-pyran-4-thione-3-β-D-glucopyranoside], which “inhibition of MMP-9 when exposed to β-glucosidase” value [3] is on record?
Answer: The value was “complete restoration of inhibition”.

Question: What about the “inhibition of MMP-9 in the absence of β-glucosidase” value [3] of the same molecule?
Answer: The value was “attenuated inhibition”.
